Like-named read-outs stand apart in the source and are kept apart here.
Experiments:
[1] = RP-TLC lipophilicity on RP-18F254 plates (Soczewiński-Wachtmeister's and Ościk's equations); format: physicochemical; settings: for RMWO(a) / RMWO(m): Ościk's equation; for RMWO(a) / RMWS(a) / φ0(a): acetone-water mobile phase; for RMWO(a) / RMWO(m) / RMWS(a) / RMWS(m): silica gel RP-18F254; for RMWO(m) / RMWS(m) / φ0(m): methanol-water mobile phase; for RMWS(a) / RMWS(m): Soczewiński-Wachtmeister's equation; for φ0(a) / φ0(m): φ0 = RMWS/S (Equation 6)
Procedure: The chromatographic analysis was carried on RP-18F254 plates (Art.1.05559, E. Merck, Darmstadt, Germany). The solutions of the investigated compounds were spotted separately onto chromatographic plates using precise micropipettes in a quantity of 5 µL each.
The chromatograms were developed using the mixtures of methanol-water and acetone-water in different volume compositions, as follows:
For antiparasitic drugs: • - the content of methanol was gradually varied by 10% (v/v) from 20–100 (%, v/v), • - the content of acetone was gradually varied by 10% (v/v) from 10–100 (%, v/v).
In the case of antihypertensive drugs, the content of methanol and acetone was gradually varied by 5% (v/v) from 60–100 (%, v/v).
For non-steroidal anti-inflammatory drugs: • - the content of methanol was gradually varied by 5% (v/v) from 60–100 (%, v/v), • - the content of acetone was gradually varied by10% (v/v) from 20–100 (%, v/v).
Next, the chamber was saturated with solvent vapor for 20 min. The chromatograms were developed at room temperature, e.g., 22 ± 1 °C. The development distance was 75 mm. The plates were dried at room temperature, e.g., 22 ± 1 °C. Each chromatogram was done in triplicate.
Densitometric scanning was done using a TLC Scanner 3 with WinCATS 1.4.2 software manufactured by Camag (Muttenz, Switzerland) in the reflectance/absorbance mode.
Densitometric scanning was performed at a respective absorption maximum for the analyzed drugs. The slit dimensions were 10.00 × 0.40 mm, Macro; the optimized optical system was light; the scanning speed was 20 mm/s; the data resolution was 100 μm/step; the measurement type was remission; the measurement mode was absorption; and the optical filter was second order. Each track was scanned three times, and a baseline correction (lowest slope) was used.
In order to determine the lipophilicity parameter based on Soczewiński-Wachtmeister′s procedure, the RF values obtained under the applied chromatographic conditions were converted into RM values according to the expression:(4) RM=log1/RF−1 The linear relationship between RM and the volume content of methanol and acetone in the mobile phase (φ) permits an extrapolation of the calculated RM values to the zero concentration of methanol and acetone in accordance with Soczewiński-Wachtmeister′s Equation (5). […] (5) RM=RMWS−Sφ where: RM is the RM value of the studied compound, RMWS is the RM value extrapolated to zero concentration of methanol and acetone (organic modifier) in the used mobile phase, i.e., methanol-water and acetone-water, respectively, S is the slope of the regression plot (see Supplementary Materials), and φ is the volume fraction of methanol and acetone in the mobile phase. In addition to this, on the basis of the said plot, i.e., Soczewiński-Wachtmeister′s equation, another chromatographic descriptor (φ0) has been calculated according to the following formula (Equation (6)): (6) φ0 = RMWS/S where: RMWS is the chromatographic parameter obtained by using Soczewiński-Wachtmeister’s equation in accordance with Equation (5), and S is the regression slope.
The measurable lipophilicity value expressed as RMWO was determined according to Ościk’s equation [29, 30, 32]:(7) Gxorg=xorg1−xorg/RM−xorgRMorg−1−xorgRMWO=axorg+b where: RM, RMorg, and RMWO are the solute retention factors in the mixed mobile phase, pure organic solvent, and water, respectively; xorg is the molar fraction of the organic solvent in the mobile phase; a and b are constants in the linear correlation between G(xorg) and xorg in the used mobile phase.

[2] = Prediction of logPexp from φ0(a) with Equation (3); format: physicochemical; settings: chromatography with acetone-water mobile phase; calculated from φ0(a) with Equation (3); read-out: predicted logPexp
Source text: The continuation of our lipophilicity study of fifteen biocompounds belonging to the three groups of drugs and the determination of another lipophilicity descriptor, namely φ0, in accordance with Equation (6), allowed us to obtain the two new lipophilicity parameters φ0(a) and φ0(m) for a proper used mobile phase, i.e., acetone-water (a) and methanol-water (m), respectively. What is important is that the calculation of this parameter was possible because a satisfactory linear relationship between both, i.e., the intercept and slope (RMWS and S), in each obtained Soczewiński-Wachtmeister’s equation was achieved (r > 0.98). In order to estimate the utility of these parameters for the prediction of the theoretical as well as experimental parameter of the lipophilicity of a large group of investigated compounds, a correlation matrix between all previously described (thus chromatographic) parameters, as well as the computed and experimental partition coefficient, was done. The results of the correlation analysis indicate that among all φ0 values the best is the one obtained for acetone-water, which is to say φ0(a). […]
This fact confirms the potential utility of the additionally calculated chromatographic parameter φ0(a) to determine the partition coefficient of all examined compounds. It can be very useful in the case of the lack of this value, like for example for the experimental logP of nilvadipine, lacidipine and carprofen. A test was performed on Equation (3) to determine the values of logPexp for the three abovementioned compounds. The results of the predicted logPexp were: 3.65 for nilvadipine, 3.96 for lacidipine and 3.54 for carprofen, respectively. It can be observed that the newly obtained logPexp values are in good agreement with the other previously described theoretical logP of these compounds. They are placed in the similar range of logP values.

[3] = Experimental n-octanol-water partition coefficient (logPexp) from literature and databases; format: physicochemical; settings: average of the differing literature logPexp values (± spread)
Source text: The next stage of this paper was a comparison of all obtained RMWS and RMWO parameters calculated using […] equations with theoretical and experimental logP values obtained in an n-octanol-water system.

[4] = design: method as in PMID 9809446; settings: methanol-water, cited from earlier work
[5] = n-octanol-water, cited from earlier work
[6] = cited from earlier work
[7] = design: method as in doi:10.1016/S0021-9673(01)88013-4; settings: RP-HPLC; cited from earlier work
[8] = cited from earlier work; remark: listed apart in the source

| Structure (SMILES) | RMWO(a) [1] | RMWO(m) [1] | RMWS(a) [1] | RMWS(m) [1] | φ0(a) [1] | φ0(m) [1] | logP [3] | further results |
| --- | --- | --- | --- | --- | --- | --- | --- | --- |
| CCOC(=O)C1=C(C)NC(C)=C(C(=O)OCC)C1c1ccccc1/C=C/C(=O)OC(C)(C)C [Lacidipine, lacidipine] | 6.63 | 6.89 | 4.51 | 5.01 | 0.793 | 0.937 |  | chromatographic logP [2]: 3.96 |
| Cc1ncc([N+](=O)[O-])n1CC(O)CCl (centres unmarked) [Ornidazole, ornidazole] | 1.42 | 1.92 | 1.22 | 1.46 | 0.565 | 0.676 | 0.41 |  |
| CCCCC1C(=O)N(c2ccccc2)N(c2ccccc2)C1=O [Phenylbutazone, phenylbutazone] |  | 3.54 | 1.72 | 1.84 |  |  |  | RMO ([4]; Nano-Sil CNF254 plates): 1.50; RMO ([4]; RP-18WF254 plates, Soczewiński-Wachtmeister's equation): 2.71 |
| Cc1cccc(Nc2ccccc2C(=O)O)c1C [Mefenamic Acid, mefenamic acid] |  | 3.74 | 2.61 | 2.49 | 0.789 | 0.865 |  | logPexp ([5]; ref 39): 5.12 [39] |
| CCS(=O)(=O)CCn1c([N+](=O)[O-])cnc1C [Tinidazole, tinidazole] | 1.11 | 1.69 | 0.89 | 1.17 | 0.463 | 0.612 | 0.18 |  |
| COc1ccc2cc(CCC(C)=O)ccc2c1 [Nabumetone, nabumetone] |  | 2.52 | 3.08 | 3.12 | 0.787 | 0.903 |  | logPexp ([5]; ref 43): 3.08 [43] |
| Cc1ncc([N+](=O)[O-])n1CCO [Metronidazole, metronidazole] | 0.94 | 1.21 | 0.65 | 0.91 | 0.398 | 0.564 | 0.1 | RMW ([6]; RP-TLC, Soczewiński-Wachtmeister's equation): 0.08; RMW(paraffin) ([6]; stationary phase liquid paraffin): 0.60; RMW(squalene) ([6]; stationary phase squalene): 0.53; logPexp ([5]; ref 34): –0.22; logPexp ([5]; ref 35): –0.10; logPexp ([5]; ref 36): –0.02 [36]; logPexp ([5]; ref 37): 0.75 [37]; logk' [7]: –0.067; hydrophilic-hydrophobic properties ([8]; according to Hoffmann et al. and Jokipii et al.): lipophilic compound that penetrates well into most tissues; hydrophilic-hydrophobic properties ([8]; reported by Biagi): hydrophilic; hydrophilic-hydrophobic properties ([8]; reported by Másson et al.): very hydrophilic |
